Reference: patent US20240294544A1, “NEW SUBSTITUTED PYRIDINES AS FUNGICIDES” (BASF SE, priority 2021, published 2024)

Key:
Assay type in all cases: cell-based
Botrytis cinerea = assay: Example 1: activity against the grey mold Botrytis cinerea in the microtiterplate test; conditions: 31 ppm active substance; relative to compound-free control (100%); 405 nm, 7 days after inoculation
Septoria tritici = assay: Comparative Example 1: activity against leaf blotch on wheat caused by Septoria tritici (microtiter plate); conditions: at 125 ppm; relative to compound-free control (100%); 405 nm, 7 days after inoculation
Procedure: The active compounds were formulated separately as a stock solution having a concentration of 10000 ppm in dimethyl sulfoxide. The stock solutions were mixed according to the ratio, pipetted onto a micro titer plate (MTP) and diluted with water to the stated concentrations. A spore suspension of Septoria tritici in an aqueous biomalt or yeast-bactopeptone-glycerine or DOB solution was then added. The plates were placed in a water vapor-saturated chamber at a temperature of 18° C. Using an absorption photometer, the MTPs were measured at 405 nm 7 days after the inoculation.
(§1) The measured parameters were compared to the growth of the active compound-free control variant (100%) and the fungus-free blank value to determine the relative growth in % of the pathogens in the respective active compounds.

Leptosphaeria nodorum = assay: Comparative Example 2: activity against wheat leaf spots caused by Leptosphaeria nodorum (microtiter plate); conditions: relative to compound-free control (100%), 405 nm, 7 days after inoculation
Procedure: The active compounds were formulated separately as a stock solution having a concentration of 10000 ppm in dimethyl sulfoxide. The stock solutions were mixed according to the ratio, pipetted onto a micro titer plate (MTP) and diluted with water to the stated concentrations. A spore suspension of Leptosphaeria nodorum in an aqueous biomalt or yeast-bactopeptone-glycerine or DOE solution was then added. The plates were placed in a water vapor-saturated chamber at a temperature of 18° C. Using an absorption photometer, the MTPs were measured at 405 nm 7 days after the inoculation.
as §1

[1] = test system: Colletotrichum orbiculare; assay: Comparative Example 3: activity against anthracnose caused by Colletotrichum orbiculare in the microtiterplate test; conditions: at 2 ppm; relative to compound-free control (100%); 405 nm, 7 days after inoculation
Procedure: The active compounds were formulated separately as a stock solution having a concentration of 10000 ppm in dimethyl sulfoxide. The stock solutions were mixed according to the ratio, pipetted onto a micro titer plate (MTP) and diluted with water to the stated concentrations. A spore suspension of Colletotrichum orbiculare in an aqueous bio malt solution was then added. The plates were placed in a water vapor-saturated chamber at a temperature of 18° C. Using an absorption photometer, the MTPs were measured at 405 nm 7 days after the inoculation.
as §1

Fusarium culmorum = assay: Example 2: activity against Fusarium culmorum in the microtiterplate test; conditions: 31 ppm active substance; relative to compound-free control (100%); 405 nm, 7 days after inoculation
Procedure: The active compounds were formulated separately as a stock solution having a concentration of 10000 ppm in dimethyl sulfoxide.
The stock solutions were mixed according to the ratio, pipetted onto a micro titer plate (MTP) and diluted with water to the stated concentrations. A spore suspension of Fusarium culmorum in an aqueous biomalt or yeast-bactopeptone-glycerine or DOB solution was then added. The plates were placed in a water vapor-saturated chamber at a temperature of 18° C. Using an absorption photometer, the MTPs were measured at 405 nm 7 days after the inoculation.
as §1

Row | Compound | growth of the pathogen (Botrytis cinerea) | Growth (%) at 125 pm (Septoria tritici) | Growth (%) at 125 pm (Leptosphaeria nodorum) | Growth (%) at 2 pm [1] | growth of the pathogen (Fusarium culmorum)
1 | Cc1cc(C2=NC(C)(C(C)(C)C)Oc3ccccc32)cnc1C(F)F (stereo not shown) [Ex-3] | 0% |  |  |  | 
2 | Cc1cc(C2=NC(C)(c3ccc(Cl)cc3)Oc3ccccc32)cnc1C(F)F (stereo not shown) [Ex-51] |  | 46% | 15% | 22% | 
3 | CC1(Cc2ccc(F)cc2)N=C(c2ccc(Cl)nc2)c2ccccc2O1 (stereo not shown) [reference compound] |  | 93% | 43% | 96% | 
4 | Cc1cc(C2=NC(C)(C(C)C)Oc3ccccc32)cnc1C (stereo not shown) [Ex-5] | 0% |  |  |  | 
5 | Cc1cc(C2=NC(C)(C)Oc3ccccc32)cnc1C [Ex-6] | 0% |  |  |  | 1%
6 | CC1(c2ccc(Cl)cc2)N=C(c2ccc(Cl)nc2)c2ccccc2O1 (stereo not shown) [reference compound] |  | 69% | 47% | 88% | 
7 | Cc1cc(C2=NC(C)(Cc3ccc(F)cc3)Oc3ccccc32)cnc1C(F)F (stereo not shown) [Ex-58] |  | 73% | 8% | 55% | 
8 | Cc1cc(C2=NC3(CCC(C)(C)C3)Oc3ccccc32)cnc1C (stereo not shown) [Ex-4] | 0% |  |  |  | 1%
9 | Cc1cc(C2=NC(C)(C(C)(C)C)Oc3ccccc32)cnc1C (stereo not shown) [Ex-2] | 0% |  |  |  | 
